The record followed here is ChEMBL document CHEMBL1144997, “Interaction of cis-(6-benzhydrylpiperidin-3-yl)benzylamine analogues with monoamine transporters: structure-activity relationship study of structurally constrained 3,6-disubstituted piperidine analogues of (2,2-diphenylethyl)-[1-(4-fluorobenzyl)piperidin-4-ylmethyl]amine” (J Med Chem, 2003).

The nature of test [1]: Ratio of [3H]- DA uptake to DAT binding was determined. The test is classed as functional.
In test [2] the target is Sodium-dependent dopamine transporter (Rattus norvegicus, UniProt P23977). In words: biochemical. Format: tissue-based, Striatum.
Chain of Sodium-dependent dopamine transporter (P23977 whole entry): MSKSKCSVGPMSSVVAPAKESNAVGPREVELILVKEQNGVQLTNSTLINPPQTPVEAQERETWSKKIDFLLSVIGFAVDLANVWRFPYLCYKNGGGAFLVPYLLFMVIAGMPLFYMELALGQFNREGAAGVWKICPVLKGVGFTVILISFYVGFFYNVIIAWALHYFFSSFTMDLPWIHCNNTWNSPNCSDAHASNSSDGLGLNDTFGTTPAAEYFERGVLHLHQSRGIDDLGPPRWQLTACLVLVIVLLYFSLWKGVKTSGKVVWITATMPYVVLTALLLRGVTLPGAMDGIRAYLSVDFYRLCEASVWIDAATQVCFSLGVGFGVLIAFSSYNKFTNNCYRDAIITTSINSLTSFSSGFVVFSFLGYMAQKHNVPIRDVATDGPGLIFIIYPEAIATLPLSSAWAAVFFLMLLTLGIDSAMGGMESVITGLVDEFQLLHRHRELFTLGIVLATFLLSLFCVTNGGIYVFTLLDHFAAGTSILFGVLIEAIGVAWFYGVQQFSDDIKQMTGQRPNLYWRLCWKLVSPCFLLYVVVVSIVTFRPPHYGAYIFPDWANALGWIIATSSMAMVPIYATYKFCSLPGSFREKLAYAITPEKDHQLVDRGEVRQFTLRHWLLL
Description: Binding affinity at the dopamine transporter in rast striatum by [3H]WIN-35428 displacement.
Test [3] concerns the target Norepinephrine transporter (Rattus norvegicus, UniProt Q9WTR4). Description: Binding affinity at the norepinephrine transporter in rat striatum by [3H]nisoxetine displacement. Format: tissue-based.
Test [4] deals with Sodium-dependent serotonin transporter (Rattus norvegicus, UniProt P31652). In words: Binding affinity at serotonin transporter in rat striatum by [3H]citalopram displacement. The test is classed as tissue-based.
Chain of Sodium-dependent serotonin transporter (P31652 whole entry): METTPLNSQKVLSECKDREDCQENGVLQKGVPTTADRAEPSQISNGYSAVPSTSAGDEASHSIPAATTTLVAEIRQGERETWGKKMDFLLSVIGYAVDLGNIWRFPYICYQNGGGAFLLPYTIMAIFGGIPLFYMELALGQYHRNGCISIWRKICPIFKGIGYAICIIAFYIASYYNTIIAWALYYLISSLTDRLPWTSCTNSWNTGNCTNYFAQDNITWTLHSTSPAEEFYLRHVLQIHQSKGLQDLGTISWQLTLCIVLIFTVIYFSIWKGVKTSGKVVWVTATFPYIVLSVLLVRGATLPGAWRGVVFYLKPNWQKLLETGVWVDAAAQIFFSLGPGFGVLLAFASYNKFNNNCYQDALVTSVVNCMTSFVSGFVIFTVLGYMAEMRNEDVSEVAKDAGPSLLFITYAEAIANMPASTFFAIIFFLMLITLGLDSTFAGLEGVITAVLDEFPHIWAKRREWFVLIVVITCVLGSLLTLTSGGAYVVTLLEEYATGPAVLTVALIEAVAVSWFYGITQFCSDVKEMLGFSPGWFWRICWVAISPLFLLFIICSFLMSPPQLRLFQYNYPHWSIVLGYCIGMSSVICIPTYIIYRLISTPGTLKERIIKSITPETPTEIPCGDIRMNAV
The species named for another test is Rattus norvegicus. In words: Inhibition of DAT uptake was determined by measuring the [3H]DA accumulation in rat striatal synaptosomes. Particulars: Brain. The test is classed as functional.

Chain of Norepinephrine transporter (Q9WTR4 whole entry): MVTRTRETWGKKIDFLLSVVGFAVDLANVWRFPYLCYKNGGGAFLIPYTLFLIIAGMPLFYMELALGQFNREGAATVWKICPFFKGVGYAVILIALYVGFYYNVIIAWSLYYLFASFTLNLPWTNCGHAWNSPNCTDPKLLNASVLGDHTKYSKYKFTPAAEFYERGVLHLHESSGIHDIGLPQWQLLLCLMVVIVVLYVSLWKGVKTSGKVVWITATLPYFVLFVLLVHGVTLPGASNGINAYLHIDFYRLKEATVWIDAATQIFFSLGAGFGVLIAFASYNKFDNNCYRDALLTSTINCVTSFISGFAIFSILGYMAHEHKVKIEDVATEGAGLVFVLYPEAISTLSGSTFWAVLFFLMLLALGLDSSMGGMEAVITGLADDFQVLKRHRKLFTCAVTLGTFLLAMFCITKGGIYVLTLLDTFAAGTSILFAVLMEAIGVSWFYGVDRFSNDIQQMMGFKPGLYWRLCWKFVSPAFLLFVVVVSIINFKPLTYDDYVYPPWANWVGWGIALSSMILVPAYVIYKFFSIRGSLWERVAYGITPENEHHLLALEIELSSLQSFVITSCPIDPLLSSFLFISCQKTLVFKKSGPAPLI

On to `Fc1ccc(CN2CCC(CNCC(c3ccccc3)c3ccccc3)CC2)cc1`, for which, in test [1], the Selectivity ratio came out at 2.5.
Take `c1ccc(CN[C@@H]2CC[C@H](C(c3ccccc3)c3ccccc3)NC2)cc1`: the IC50 in test [2] turned out to be 0.114 µM; in test [3], 0.612 µM; in test [4], 2.13 µM.
The corresponding values for `c1ccc(C(c2ccccc2)[C@H]2CC[C@@H](NCc3cccs3)CN2)cc1` are 0.267 µM, 4.73 µM and 3.65 µM.
Regarding `N#Cc1ccc(CN[C@H]2CC[C@@H](C(c3ccccc3)c3ccccc3)NC2)cc1`, the IC50 in test [2] is 0.0113 µM; in test [3] it was 1.67 µM; in the test filed under Rattus norvegicus, 0.0091 µM; in test [4], 0.434 µM. Moreover, the Selectivity ratio in test [1] turned out to be 0.8.
Turning to `COc1ccc(CN[C@@H]2CC[C@H](C(c3ccccc3)c3ccccc3)NC2)cc1`, the IC50 was found to be 0.0475 µM in test [2], 1.11 µM in test [3], 0.0405 µM in the test listed under Rattus norvegicus and 1.04 µM in test [4]. Moreover, the Selectivity ratio in test [1] stood at 0.85.
In the case of `Fc1ccc(CN[C@@H]2CC[C@H](C(c3ccccc3)c3ccccc3)NC2)cc1F`, the IC50 amounted to 0.0635 µM in test [2], 1.59 µM in test [3], 0.077 µM in the test listed under Rattus norvegicus and 2.25 µM in test [4]. In test [1], the Selectivity ratio is 1.2.
With `Fc1ccc(CN[C@@H]2CC[C@H](C(c3ccccc3)c3ccccc3)NC2)cc1`, the IC50 in test [2] was found to be 0.229 µM; in test [3], 2.29 µM; in the test listed under Rattus norvegicus it was 0.142 µM; in test [4], 3.54 µM. In addition, in test [1], the Selectivity ratio worked out at 0.62.
For `Fc1ccc(CCNC2CCC(C(c3ccccc3)c3ccccc3)NC2)cc1` (stereo not given), the IC50 came out at 0.173 µM in test [2], 1.74 µM in test [3] and 2.19 µM in test [4].
Consider `c1ccc(C(c2ccccc2)[C@H]2CC[C@@H](NCc3cc4ccccc4[nH]3)CN2)cc1`, for which the IC50 was found to be 0.0954 µM in test [2], 1.01 µM in test [3], 0.051 µM in the test listed under Rattus norvegicus and 1.8 µM in test [4]. For the same compound, the Selectivity ratio in test [1] amounted to 0.53.
For `N#Cc1ccc(CN[C@@H]2CC[C@H](C(c3ccccc3)c3ccccc3)NC2)cc1`, the IC50 in test [2] worked out at 0.109 µM; in test [3], 16.6 µM; in the test filed under Rattus norvegicus, 0.152 µM; in test [4], 1.55 µM. Besides, in test [1], the Selectivity ratio came to 1.4.
On to `Fc1ccc(CN[C@H]2CC[C@@H](C(c3ccccc3)c3ccccc3)NC2)cc1`, for which the IC50 in test [2] turned out to be 0.0338 µM; in test [3] it was 1.42 µM; in the test filed under Rattus norvegicus, 0.0538 µM; in test [4], 1.33 µM. In test [1], the Selectivity ratio turned out to be 1.6.
Consider `c1ccc(C(c2ccccc2)[C@H]2CC[C@@H](NCc3csc4ccccc34)CN2)cc1`, for which the IC50 in test [2] worked out at 0.515 µM; in test [3], 1.05 µM; in test [4], 2.77 µM.
Consider `Oc1ccc(CN[C@@H]2CC[C@H](C(c3ccccc3)c3ccccc3)NC2)cc1`, for which the IC50 in test [2] is 0.0659 µM; in test [3] it was 0.201 µM; in test [4], 0.862 µM.
Regarding `Fc1ccc(CNC2CCC(C(c3ccccc3)c3ccccc3)NC2)cc1` (racemic), in test [1], the Selectivity ratio was found to be 1.4.
Take `c1ccc(C(c2ccccc2)[C@H]2CC[C@@H](NCc3c[nH]c4ccccc34)CN2)cc1`: the IC50 is 0.834 µM in test [2], 3.79 µM in test [3] and 3.01 µM in test [4].

In general, IC50 refers to the concentration at which inhibition is half-maximal.
